According to patent US20040043939A1, “Peptide-based gemini compounds” (SmithKline Beecham p.l.c., priority 1997, published 2004):
Numbered stars: 1 amine (or outer) side, 2 acyl side, 3 side chain; on linkers, the order of the positions; unused ones are H or OH. Bridge positions count the residues as written; N and C are the ends. Peptide text beside a SMILES is read from it. I, II: the chains in the order shown. * marks the point of attachment. NH(CH2)11CH3 = CCCCCCCCCCCCN*; CH2CH2 = C(C[*:2])[*:1]

Key:
Type in all cases: cell-based
HEK293 cells = assay: Transfection of luciferase plasmid into HEK293 cells, luciferase activity assay; conditions: for Efficiency in facilitating transfection of the luciferase plasmid: at concentrations above 150 ug/ml; for Luciferase activity, mean count at most effective (peak) concentration: luciferase control plasmid 6 ug, mean of 4 independent counts; for Concentration of peak transfection efficiency (most effective concentration): luciferase plasmid
Experimental: All tissue culture reagents were obtained from Life Technologies Inc. HEK 293 cells were seeded at 2-3×10^5 cells per well in Nunc six-well culture plates, 24 hours prior to transfection. The cells were seeded in 2 mls Dulbeccos Modified Eagle medium containing Earles salts and supplemented with 10% v/v foetal bovine serum (=complete medium). The cells were grown at 37° C. in 5% CO2 in a humidified atmosphere. 6 ug DNA (“luciferase control plasmid” from Promega Corp.) were dissolved in 100 ul serum free medium (OPTI-MEMO). The peptide-based gemini compounds were made up at 1 mg/ml in tissue culture grade water and then diluted in OPTI-MEM® to the appropriate concentration to a final volume of 100 ul. The DNA and gemini solutions were mixed (to a total volume of 200 ul; final concentrations of 5, 25, 50, 100, 150, 200, 250 and 300 ug/ml) and left at room temperature for 15 minutes. The DNA/gemini mix was placed onto the cells in each well and left in contact for 18-20 hours. The cells were then washed twice with phophate buffered saline prior to 1 ml of fresh complete medium being added. Cells were incubated for a further 24 hours prior to lysis and luciferase activity assayed.
All luciferase activity assays were performed using the Canberra Packard (Berkshire, UK) Luclite kit according to the manufacturer's instructions with the exception that the cells in each well were resuspended in 1 ml lysis buffer and 100 ul aliquots mixed with 100 ul of the luciferase substrate. The reaction mix was left for a 15 minutes adaptation period in the dark before counting for 5 minutes in a Top Count scintillation counter. Luciferase activity is measured as counts per second (CPS) from the scintillation counter. Four independent counts were taken per well.
Control transfections were set up with no DNA, CaPO4, an anionic gemini compound (1) and the commercially available lipofection reagents LipofectAmine™ and Lipotaxi™ at the manufacturers recommended concentrations (10, 25, 50, 75, 125 ug/ml and 175, 250, 325, 400 and 500 ug/ml respectively).

CHO-K1 cells [1] = assay: Transfection of luciferase plasmid into CHO-K1 cells, luciferase reporter gene assay; conditions: for Luciferase activity, mean count at most effective (peak) concentration: 5 ug luciferase plasmid, about 48 h post transfection; for Concentration of peak transfection efficiency (most effective concentration): luciferase plasmid
Experimental: CHO-K1 cells (ATCC: CRL-9618) were seeded into T25-culture flasks (Corning-Costar Buckinghamshire, UK), at 7×10^5 cells per flask, 24 hours prior to transfection. The CHO-K1 cells were seeded in 5 ml MEM alpha medium with ribonucleosides and deoxyribonucleosides and supplemented with 1× L-glutamine and 10% v/v foetal bovine serum (complete medium). The cells were grown at 37° C. in 5% CO2 in a humidified atmosphere.
For transfection, 5 ug DNA (luciferase control plasmid) was incubated with the gemini compounds in water (final volume 400 μl). The peptide-based gemini compounds were made up at 1 mg ml^−1 in tissue culture grade water and then diluted to the appropriate concentration to a total volume of 200 ul. Following a 30 minute room temperature incubation, 2.6 ml OPTI-MEM® medium was added and the solution placed on the cells. Following an overnight incubation at 37° C., the transfection solution was replaced with complete medium and the cells incubated at 37° C. 24 hours post transfection the cells were detached from the flask and seeded into 96-well plates at a density of 0.5×10^5 cells per well and incubated for a further 24 hours at 37° C. Luciferase reporter gene assays were performed according to the manufacturers instructions (Roche Diagnostics, Mannheim, Germany) approximately 48 hours post transfection. The plates were left for a 15 minutes adaption period in the dark before counting for 60 seconds in a TopCount NXT counter (Canberra Packard). An average of eight wells were counted per transfection.
Control transfections were set up with no DNA, an anionic gemini compound and the commercially available reagent LipofectAmine PLUS™.

CHO-K1 cells [2] = assay: Transfection of luciferase plasmid into CHO-K1 cells with gemini compounds in combination with supplements (DOPE, PLUS)
Experimental: The transfection ability of the gemini compounds could be further enhanced by the addition of a neutral carrier, for example, dioleyl phosphatidylethanolamine (DOPE) (Farhood, H., et al (1985) Biochim. Biophys. Acta 1235 289) or a complexing reagent, for example, PLUS compound (Life Technologies Inc.). […] Transfection mediated by compound 55 with DOPE in a 2:1 ratio and the addition of 11.6 ul of PLUS compound lead to a mean count of 6.5×10^5 cps representing a 12-fold increase of luciferase activity in comparison to compound 55 alone. Incubation of the PLUS compound with the DNA and combination with compound 55 alone also lead to a 4-fold increase.

[3] = compound 55 with DOPE 2:1 plus 11.6 ul PLUS compound

| Compound | Efficiency in facilitating transfection of the luciferase plasmid (HEK293 cells) | Luciferase activity, mean count at most effective (peak) concentration (HEK293 cells) | Concentration of peak transfection efficiency (most effective concentration) (HEK293 cells) [µg/mL] | Efficiency in facilitating transfection of the luciferase plasmid (CHO-K1 cells [1]) | Luciferase activity, mean count at most effective (peak) concentration (CHO-K1 cells [1]) | Concentration of peak transfection efficiency (most effective concentration) (CHO-K1 cells [1]) [µM] | Increase of luciferase activity (CHO-K1 cells [2]; PLUS compound incubated with the DNA, combined with compound 55 alone (no DOPE)) [fold] | Increase of luciferase activity (CHO-K1 cells [2]; compound 55 and DOPE at 2:1 ratio) [fold] | Increase of luciferase activity in comparison to compound 55 alone (CHO-K1 cells [2]; [3]) [fold] | Luciferase activity, mean count (CHO-K1 cells [2]; [3]) | Luciferase activity count, control transfection (HEK293 cells; CaPO4 transfection) |
| --- | --- | --- | --- | --- | --- | --- | --- | --- | --- | --- | --- |
| CCCCCCCCCCCCCNC(=O)C(CO)NC(=O)C(CSCCSCC(NC(=O)C(N)CCCCNC(=O)C(N)CCCCN)C(=O)NC(CO)C(=O)NCCCCCCCCCCCC)NC(=O)C(N)CCCCNC(=O)C(N)CCCCN.Cl.Cl.Cl.Cl (centres unmarked) [Compound 55] | very efficient agents | about 45,000 cps | 300 | very efficient agents | about 2.4×10^5 cps | 30 | 4 | 9 | 12 | 6.5×10^5 cps |  |
| CCCCCCCCCCCCNC(=O)C(CO)NC(=O)C(CSCCSCC(NC(=O)C(CCCCNC(=O)C(N)CCCCN)NC(=O)C(N)CCCCN)C(=O)NC(CO)C(=O)NCCCCCCCCCCCC)NC(=O)C(CCCCNC(=O)C(N)CCCCN)NC(=O)C(N)CCCCN.Cl.Cl.Cl.Cl.Cl.Cl.Cl.Cl (centres unmarked) [Compound 56] (I: H-KK(Lys)CS-{NH(CH2)11CH3} / II: H-KK(Lys)CS-{NH(CH2)11CH3}; linker I:3-II:3 via CH2CH2; configuration not given here) | very efficient agents | about 50,000 cps | 200 | very efficient agents | about 1.9×10^5 cps | 40 |  |  |  |  |  |
| CaPO4 [reference compound] |  |  |  |  |  |  |  |  |  |  | about 2,000 cps |
